Data as given in patent publication US10617675B2, “Hepatitis C virus inhibitors” (BRISTOL-MYERS SQUIBB COMPANY, priority 2015, dated 2020).
Read-outs that look alike come from different tables or passages of the source.

What was measured:
HCV = assay: Relative (synergistic) activity of separated diastereomers; type: cell-based, Hepatitis C virus; details: comparison within the set of three diastereomers; first eluting isomer
[1] = system: HCV genotype-1a variant with glutamine 30 changed to glutamate in the NS5A protein; type: cell-based, Hepatitis C virus; details: genotype-1a Q30E; BMS-790052 titrated with 200 nM P-55 versus singly
From the text: The NS5A synergistic inhibitory effect of test compounds can be determined using various amounts of an NS5A-targeting compound with titration of a second compound of interest. […] The test compound can be chosen from compounds listed above or from others present in the literature.

[2] = system: HCV genotype-1a variant with glutamine 30 changed to glutamate in the NS5A protein; details: genotype-1a Q30E NS5A variant, cited from earlier work

Structure (SMILES)	activity relative to the other separated diastereomers (HCV)	reciprocal synergistic inhibitory effect for the combination [1] [fold]	EC50 ([2]; P-55 fixed at 200 nM, read-out: EC50 of BMS-790052 in the presence of a fixed amount of P-55) [nM]	EC50 ([2]; single agent, read-out: EC50, compound titrated singly) [nM]
CN(C)C(=O)OC(C)(C(=O)N[C@H](c1ncc(-c2ccc(-c3ccc(-c4cnc([C@@H](NC(=O)C(C)(OC(=O)N(C)C)C(C)(C)CF)C(C)(C)C)[nH]4)cc3)cc2)[nH]1)C(C)(C)C)C(C)(C)CF (single isomer, unassigned) [Example Y1]	most active of the set	–	–	–
CC(C)(C)[C@H](NC(=O)C1(CO)OC2CCC1CC2)c1nc(-c2ccc(-c3ccc(-c4c[nH]c([C@@H](NC(=O)C5(CO)OC6CCC5CC6)C(C)(C)C)n4)cc3)cc2)c[nH]1 (single isomer, unassigned) [Example Y14]	most active isomer	–	–	–
COC(=O)N[C@H](C(=O)N1CCC[C@H]1c1nc(-c2ccc(-c3ccc(-c4c[nH]c([C@@H]5CCCN5C(=O)[C@@H](NC(=O)OC)C(C)C)n4)cc3)cc2)c[nH]1)C(C)C [BMS-790052]	–	~100	~2	~200
CC(C)(C)[C@H](NC(=O)C(C)(OC(=O)N1CCC1)C1(C)CC1)c1nc(-c2ccc(-c3ccc(-c4c[nH]c([C@@H](NC(=O)C(C)(OC(=O)N5CCC5)C5(C)CC5)C(C)(C)C)n4)cc3)cc2)c[nH]1 (stereo partly shown) [Example Y19a]	most synergistically active of the three	–	–	–
COC(=O)N1CC(F)(F)CC1(C)C(=O)N[C@H](c1nc2ccc(-c3cnc(-c4ccc5nc([C@@H](NC(=O)C6(C)CC(F)(F)CN6C(=O)OC)C(C)(C)C)[nH]c5c4)cn3)cc2[nH]1)C(C)(C)C (stereo partly shown) [Example Y20]	most synergistically active of the three	–	–	–
